The subject of data set [1] is PDE IV isozymes separated from U937 culture cells. The experiment in a line: PDE IV inhibition ([3H]-cAMP hydrolysis). It is filed as biochemical. The conditions noted are these: cAMP 1 μM as substrate, 30° C., 20 minutes, Probit method. The procedure:
PDE IV isozymes as used herein were separated from U937 culture cells by using an anion exchange chromatography. Type IV PDE isozyme was admixed with ethylene glycol (EG) to adjust the final EG concentration to 30%, then stored at −20° C. and diluted when used. The enzymatic activity for PDE IV was measured using cAMP as a substrate.
Each test compound was dissolved in DMSO to adjust the final concentration to 1% (2.5 μl/tube). Incubation buffer solution (pH7.5): • Tris-HCl (50 mM), magnesium chloride (6 mM), dithiothreitol (2.5 mM), 5-nucleotidase (4 μg/ml), bovine serum albumin (0.23 mg/ml), and cAMP (1 μM).
A mixture of the aforementioned test compound solution and the buffer solution was incubated at 30° C. for 20 minutes. The reaction was quenched by admixing with 1 ml of anion exchange resin slurry (AG1-X8, 200–400 meshes, chloride form; Bio-Rad) to absorb unreacted substrates. After the reaction stopped, the mixture was centrifuged at 800×g for 10 minutes, and the resulting supernatant was collected with vials in 250 μl aliquots. To each vial was added 5 ml of ACS-II (scintillator, Amersham). The radioactivity was measured with a liquid scintillator counter for [^3H]-adenosine and set as the PDE IV activity.

For data set [2], the system named is actively sensitized guinea pigs. Kind of data set: Inhibition of antigen-induced immediate asthmatic response (airway resistance, Konzett-Rossler method). Format: in vivo, Male Hartley outbred guinea pigs. The conditions noted are these: orally, 60 minutes prior to antigen-challenge, ovalbumin-sensitized guinea pigs, Probit method; for ED50: Cavia porcellus. The procedure: Male Hartley outbred guinea pigs were sensitized by administering intraperitoneally physiological saline (0.5 ml) containing ovalbumin (1 mg, antigen) and 5×10^9 inactivated Bordetella pertussis dead cells (adjuvant). Eleven to thirteen days after the first sensitization, 0.05 ml of an ovalbumin solution (1 mg/ml) (ovalbumin is dissolved in physiological saline) was administered to the lateroabdominal region of each guinea pig intracutaneously. An establishment of sensitization was checked relying on cutaneous reaction. Only guinea pigs wherein significant reddening responses occurred 5 to 10 minutes later were employed in the next measurement test for airway resistance.
The guinea pigs (3 animals per group) actively sensitized in the above step (1) were employed to measure for their airway pressure according to Konzett-Rossler method (Arch. Exp. Path. Pharmakol., 195, 71 (1940)).
Thirteen days after the final sensitization, guinea pigs fasted overnight, and were on the next day anesthetized with a pentobarbital solution (30 mg/1.2 ml/kg, dissolved in physiological saline, intraperitoneal administration). After the guinea pigs were fixed in a supine position, their trachea was incised followed by insertion with one port of a 4-port cannula. Among the remaining 3 ports, 2 ports were connected to an artificial respirator (Model 683, Harvard). The animals were ventilated with 10 ml/kg of air per ventilation at a rate of 60 beats/min via the artificial respirator from the cannula. One port remainder was connected to a respiratory amplifier (AR-601G, Nihon Kohden, Japan) via an airflow resistance tube (TV-241T, Nihon Kohden, Japan) and a differential pressure transducer (TP-602T, Nihon Kohden, Japan) connected with a control box (RY-111S, Nihon Kohden, Japan). From a catheter inserted into a left carotid artery, blood pressures were monitored with a blood pressure measurement unit (AP641G, NEC Corp., Japan) via a blood pressure transducer (TP-300T, Nihon Kohden, Japan), and heart rates were recorded on a thermal recorder (WT-685G, Nihon Kohden, Japan), relying on blood pressure pulse waves after being led to a cardiograph unit (AT601G, Nihon Kohden, Japan).
After airway pressure became stable, an ovalbumin solution. (1 mg/ml, dissolved in physiological saline) was administered at a dose of 1 ml/kg via a tube with which the right jugular vein of guinea pigs was cannulated.
Each test compound was suspended in 0.5% CMC—Na solution and administered orally with an oral sound at a dose of 0.03 to 20 mg/2 ml/kg 60 minutes prior to the antigen-challenge. Control groups received only 0.5% CMC—Na solution in an equivalent amount. The pentobarbital-anesthetization and tracheal incision were conducted 30 minutes prior to the antigen-challenge.
Each percent reduction of increase in airway resistance (each test compound-administered group versus control group) was calculated according to the equation given below. ED50 was obtained by Probit method.

The subject of another data set is Male Marshall ferrets. Kind of data set: Emetic action. It is filed as in vivo. Particulars: oral, observed within 12 hours, dose = ED50 of Assay Example 2. The procedure: Male Marshall ferrets (each group consisting of 3 animals) as used herein fasted overnight. On the next day, a suspension of each test compound in 0.5% CMC—Na solution was administered orally to the animals. […] Next, each maximum tolerance dose against emesis was obtained. SB207499 was used for the reference compound in this assay.

For a further data set, the system named is ICR mice. The experiment in a line: Toxicology study. It is filed as in vivo. Particulars: oral 300 mg/10 ml/kg. As for the experimental part:
Each Compound (Example Nos. 7 and 8) was administered orally to ICR mice (7 animals per group) as a test compound. […] Each test compound was suspended in 0.5% CMC—Na solution and given orally to the animal at a dose of 300 mg/10 ml/kg.

Experimental findings from patent US7115623B2, “PDE IV inhibitors” (Aska Pharmaceuticals Co., Ltd., priority 2001, dated 2006) are described below.

Usually melting point stands for the temperature of the solid-liquid transition. The molecule `O=c1c(CCCc2cccnc2)cc2cccnc2n1-c1ccc2nsnc2c1` [Example 2, 1-(2,1,3-Benzothiadiazol-5-yl)-3-[3-(pyridin-3-yl)propyl]-1,8-naphthyridin-2(1H)-one] gave a melting point of 173.5 to 174.5 °C.

As to `O=c1c(CCCc2ccccn2)cc2cccnc2n1-c1ccc2nsnc2c1` [Example 3, 1-(2,1,3-Benzothiadiazol-5-yl)-3-[3-(pyridin-2-yl)propyl]-1,8-naphthyridin-2(1H)-one], the melting point fell in the range of 169.5 to 170.5 °C. Still for that read-out and setting: the same measure for `O=c1c(CCCc2cncnc2)cc2cccnc2n1-c1cccc([N+](=O)[O-])c1` [Example 4, 1-(3-Nitrophenyl)-3-[3-(pyrimidin-5-yl)propyl]-1,8-naphthyridin-2(1H)-one]: 175 to 175.5 °C; for `O=c1c(CCCc2cccnn2)cc2cccnc2n1-c1cccc([N+](=O)[O-])c1` [Example 5, 1-(3-Nitrophenyl)-3-[3-(pyridazin-3-yl)propyl]-1,8-naphthyridin-2(1H)-one]: 234 to 235 °C; for `O=c1c(CCCc2cnccn2)cc2cccnc2n1-c1cccc([N+](=O)[O-])c1` [Example 6, 1-(3-Nitrophenyl)-3-[3-(pyrazin-2-yl)propyl]-1,8-naphthyridin-2(1H)-one]: 194 to 195 °C. For the molecule `CN(C)c1cccc(-n2c(=O)c(CCCc3ccncc3)cc3cccnc32)c1` [Example 9, 1-(3-Dimethylaminophenyl)-3-[3-(pyridin-4-yl)propyl]-1,8-naphthyridin-2(1H)-one], the melting point lay within 124 to 127 °C. Still for that read-out and setting: the same measure for `CC(=O)Nc1cccc(-n2c(=O)c(CCCc3ccncc3)cc3cccnc32)c1` [Example 10, 1-(3-Acetylaminophenyl)-3-[3-(pyridin-4-yl)propyl]-1,8-naphthyridin-2(1H)-one]: 200 to 202 °C; for `CC(CCc1cc2cccnc2n(-c2cccc(N)c2)c1=O)c1ccncc1` (stereo not shown) [Example 13, 1-(3-Aminophenyl)-3-[3-methyl-3-(pyridin-4-yl)propyl]-1,8-naphthyridin-2(1H)-one]: 83 to 91 °C. Still for that read-out and setting: the same measure for `CC(CCc1cc2cccnc2n(-c2cccc(N(C)C)c2)c1=O)c1ccncc1` (stereo not shown) [Example 15, 1-(3-Dimethylaminophenyl)-3-[3-methyl-3-(pyridin-4-yl)propyl]-1,8-naphthyridin-2(1H)-one]: 148 to 154 °C; for `O=c1c(CCC(O)c2ccncc2)cc2cccnc2n1-c1cccc([N+](=O)[O-])c1` (stereo not shown) [Example 20, 1-(3-nitrophenyl)-3-[3-hydroxy-3-(pyridin-4-yl)propyl]-1,8-naphthyridin-2(1H)-one]: 235 to 236 °C; for `CC(=O)OC(CCc1cc2cccnc2n(-c2cccc([N+](=O)[O-])c2)c1=O)c1ccncc1` (stereo not shown) [Example 22, 1-(3-Nitrophenyl)-3-[3-acetyloxy-3-(pyridin-4-yl)propyl]-1,8-naphthyridin-2(1H)-one]: 69 to 71 °C. The same measure, in the same setting: to `Nc1cccc(-n2c(=O)c(CCC(O)c3ccncc3)cc3cccnc32)c1` (stereo not shown) [Example 23, 1-(3-Aminophenyl)-3-[3-hydroxy-3-(pyridin-4-yl)propyl]-1,8-naphthyridin-2(1H)-one] belongs 209 to 211 °C. In turn, `O=c1c(CCCc2ccncc2)cc2cccnc2n1-c1cccc2nsnc12` [Example 24, 1-(2,1,3-Benzothiadiazol-4-yl)-3-[3-(pyridin-4-yl)propyl]-1,8-naphthyridin-2(1H)-one] yielded a melting point of 191 to 192 °C.

As for `O=c1c(CCCc2ccncc2)cc2cccnc2n1-c1ccc(Cl)c([N+](=O)[O-])c1` [Example 25, 1-(4-Chloro-3-nitrophenyl)-3-[3-(pyridin-4-yl)propyl]-1,8-naphthyridin-2(1H)-one], the melting point was in the range of 136 to 137 °C.

Take `O=c1c(CCCc2ccncc2)cc2cccnc2n1-c1ccc2nonc2c1` [Example 27, 1-(2,1,3-Benzoxadiazol-5-yl)-3-[3-(pyridin-4-yl)propyl]-1,8-naphthyridin-2(1H)-one]: the melting point lay in the range of 192 to 194 °C. One may read the IC50 as the concentration that gives 50% inhibition. Higher therefore signals weaker potency. One may read the ED50 as the midpoint of the dose-response relation. For `Nc1cccc(-n2c(=O)c(CCCc3cc[n+]([O-])cc3)cc3cccnc32)c1` [Example No. 8, 1-(3-Aminophenyl)-3-[3-(1-oxypyridin-4-yl)propyl]-1,8-naphthyridin-2(1H)-one], the half-inhibitory concentration (IC50) in data set [1] stood at 0.067 µM. In addition, the ED50 in data set [2] was 1.2 mg/kg. The “Emetic actions at asthmatic response-inhibitory ED50 level” value in the data set on Male Marshall ferrets is recorded as “no observation for emetic actions”. In the data set with ICR mice, the Body weight gain entry is on record as “No reduction of body weight gains was observed”, the Mortality entry is “None of the animals were died” and the “Other parameters (general health conditions)” value was “no abnormality was observed”. Turning to `CC(CCc1cc2cccnc2n(-c2cccc([N+](=O)[O-])c2)c1=O)c1ccncc1` (stereo not shown) [Example No. 11, 1-(3-Nitrophenyl)-3-[3-methyl-3-(pyridin-4-yl)propyl]-1,8-naphthyridin-2(1H)-one], the melting point lay within 154 to 155 °C. In data set [1], this molecule returned an IC50 of 0.07 µM. Further, in data set [2], the ED50 stood at 0.12 mg/kg. `CC(CCc1cc2cccnc2n(-c2cccc([N+](=O)[O-])c2)c1=O)c1cc[n+]([O-])cc1` (stereo not shown) [Example No. 12, 1-(3-nitrophenyl)-3-[3-methyl-3-(1-oxypyridin-4-yl)propyl]-1,8-naphthyridin-2(1H)-one] had a melting point of 182.5 to 196.5 °C. Also, the concentration for half-maximal inhibition (IC50) in data set [1] was determined as 0.13 µM. Also, the ED50 in data set [2] came to 0.21 mg/kg. In data set [1], `O=C(CCc1cc2cccnc2n(-c2cccc([N+](=O)[O-])c2)c1=O)c1ccncc1` [Example No. 17, 1-(3-Nitrophenyl)-3-[3-oxy-3-(pyridin-4-yl)propyl]-1,8-naphthyridin-2(1H)-one] registered a 50% inhibitory concentration (IC50) of 0.45 µM. For the same molecule, the median effective dose (ED50) in data set [2] turned out to be 0.71 mg/kg.

Regarding `Nc1cccc(-n2c(=O)c(CCC(=O)c3cc[n+]([O-])cc3)cc3cccnc32)c1` [Example No. 19, 1-(3-Aminophenyl)-3-[3-oxo-3-(1-oxypyridin-4-yl)propyl]-1,8-naphthyridin-2(1H)-one], in data set [2], the “Inhibition of Asthmatic response ED50” value came out at 0.38 mg/kg. Regarding `COc1ccc(C2CNC(=O)C2)cc1OC1CCCC1` (stereo not shown) [Rolipram, reference compound], the ED50 in data set [2] is 0.51 mg/kg.
